Entries after “also recorded” stand apart in the source; their conditions may differ.
How the values were obtained:
[1] = system: mdx mice; test: mdx mouse model: histological evaluation of gastrocnemius muscle (H&E); assay type: in vivo; conditions: H&E staining; 3 months treatment; comparison to untreated and prednisolone treated mdx mice
Experimental: (§1) Separate groups (n=12-14) of mdx mice were treated with prednisolone (5 mg/kg/day; per oral in feed), Example 1 (20 and 40 mg/kg/day; per oral in feed) and Example 2 (20 and 40 mg/kg/day; per oral in feed) for 3 months. All mice underwent 30 min biweekly treadmill exercise during the treatment duration to unmask the mild disease phenotype of mdx mouse model.
Hematoxylin and Eosin staining of gastrocnemius muscle of untreated mdx mice show significant degeneration and inflammation.

[2] = system: C57BL/6 mice; test: Mouse carrageenan-induced paw edema model; assay type: in vivo; conditions: Example 7 10, 20, 40 mg/kg in cherry syrup; 5 hours after carrageenan
Experimental: Female C57BL/6 mice (n=5 per group) were administered prednisone (5 mg/kg) and the compound of Example 7 (10, 20, 40 mg/kg) in cherry syrup. 24 hours later, drugs and vehicle control (syrup) were administered again. 2 hours later, mice were anesthetized, paw thickness was measured with a caliper to obtain a baseline value, and 1% carrageenan was injected subcutaneously in the subplantar region of the right hind paw. Mice were sacrificed 5 hours later and paw edema was measured via caliper. Change in thickness was calculated by subtracting baseline value from post-carrageenan injection value. Statistical analysis was performed using a Student's T-test.

[3] = system: DBA/1 mice; test: Collagen antibody induced arthritis (CAIA) model; assay type: in vivo, mouse; parameters: Mean clinical severity score, Day 7 / Mean clinical severity score, Day 9 / Mean clinical severity score, Day 11 / Mean clinical severity score, Day 14: scale not given here; conditions: for Mean clinical severity score, Day 7 / Mean clinical severity score, Day 9 / Mean clinical severity score, Day 11 / Mean clinical severity score, Day 14: oral, day 0 through day 14; for Mean clinical severity score, Day 7 / Mean clinical severity score, Day 9 / Mean clinical severity score, Day 11 / Mean clinical severity score, Day 14 / Reduction as compared with vehicle-treated mice, Day 7 / Reduction as compared with vehicle-treated mice, Day 9 / Reduction as compared with vehicle-treated mice, Day 11 / Reduction as compared with vehicle-treated mice, Day 14: prednisone 5 mg/kg, Example 7 20 mg/kg
Experimental: On day 1, DBA/1 mice (Jackson Labs, Bar Harbor, Me.) received an intraperitoneal (i.p.) injection of 2 mg of monoclonal antibody cocktail specific for collagen (CII) (MD Biosciences, St. Paul, Minn.). Two days later (day 3), mice received an i.p. injection of 100 μg of lipopolysaccharide (LPS). Mean clinical severity of CAIA was determined using a macroscopic clinical severity scoring system every 2-3 days by three individuals until the end of the experiment (day 14 post antibody cocktail injection). The scoring criteria was performed as follows:
For intervention studies, mice (n=10) received an oral dose of 20 mg/kg of the compound of Example 7 suspended in cherry syrup (30 μl total volume) on day 0 through day 14. Additional groups of mice (n=10) received 5 mg/kg of prednisone in cherry syrup as a positive control, or cherry syrup alone as a negative control. On day 14, animals were sacrificed via CO2 exposure. Statistical analysis was performed using a two-way ANOVA followed by a Bonferroni post-hoc test.

[4] = system: OVA-primed mice; test: OVA-induced mouse model of acute allergic asthma; assay type: in vivo; conditions: 20 mg/kg oral on days 6-11
Experimental: The model used in the current studies has been previously described (Gwinn et al. 2006; Balsley et al. 2010). Briefly, mice were primed via intraperitoneal (i.p) injection with 50 μg of OVA in PBS with 100 μl of alum (200 μl total volume per mouse) on day 0. OVA-primed mice were challenged under light anesthesia (isoflurane) by intranasal delivery of 100 μg of OVA in PBS on days 7-10. Mice were sacrificed via CO2 exposure on day 12 for analysis.
For in vivo intervention studies, mice (n=5) received an oral dose of 20 mg/kg of the compound of Example 7 suspended in cherry syrup (30 μl total volume) on days 6-11. Additional groups of mice (n=5) received 5 mg/kg of prednisone in cherry syrup as a positive control, or cherry syrup alone as a negative control. Following sacrifice on day 12, leukocytes were collected from the airways via bronchoalveolar lavage (BAL). For this procedure, a cannula was inserted into the trachea and two 1 ml washes of cold PBS were infused in and out of the airways. […]
BAL and lung tissue cells were treated with ammonium chloride lysis buffer to remove red blood cells. The remaining leukocytes were then counted and stained for FACS analysis with a combination of PE-Cy5-anti-mouse CD4 and FITC-anti-mouse CD62L to identify effector/memory CD4+ cells (CD4+/CD62L−). […]

[5] = system: knockout-transgenic sickle cell mice; test: Mouse model of sickle cell disease; assay type: in vivo; conditions: 30 mg/kg, 6 weeks
Experimental: Example 7 was tested in a mouse model of sickle cell disease, knockout-transgenic sickle cell mice were used which have been previously described in Meiler S E et al. 2001.
Female knockout-transgenic sickle mice (aged 6-8 weeks), were treated for 6 weeks with Example 7, (30 mg/kg) (n=5), or a vehicle control (cherry syrup) (n=5). At the end of the 6 week treatment, hematologic parameters were measured and tissues were harvested. Additionally, nociception evaluation was performed before and after treatment by assessing sensitivity to hot and cold pain as previously described in Le Bars D. et al. 2001.

[6] = system: DBA mdx mice; test: Heart function in mdx mice (echocardiography); assay type: in vivo, mouse; conditions: 15 and 30 mg/kg/day oral syrup, 8 weeks
From the text: To test the compound of Example 7 and its relationship to heart function, 4 groups of mdx mice (n=10, per group) and 1 group of wild type mice (n=10, per group) were studied. The groups were as indicated as such in Table 2.
The method of administration was a daily oral syrup an the treatment period was eight (8) weeks. The age at the start of the first dose was 6-7 weeks. Echocardiography was used to assess ejection fraction and fraction shortening following drug treatment.

[7] = system: J:NU mice injected with BSG mouse CSPG4+/+ cells; test: Mouse model of diffuse intrinsic pontine glioma; assay type: in vivo
Experimental: A murine model of brainstem glioma developed in Dr. Javad Nazarian's laboratory at Children's National Medical Center was used for testing VBP15 efficacy in vivo. BSG mouse CSPG4+/+ cells were expanded in culture to form neurospheres and were subsequently injected into brainstems of 2-day old (P2) J:NU mice. Dexamethasone (Dex) (2.5 mg/kg body weight), Example 7 (30 mg/kg body weight) and cherry syrup (control) were orally administered daily for […] starting on postnatal day 11. In another study, mice were treated daily with Dexamethasone (Dex) (2.5 mg/kg), Example 7 (30 mg/kg) or cherry syrup from post-natal days 10-46.

[8] = system: Female beagle dogs; test: Corpora lutea in female dogs, 39-week treatment; assay type: in vivo, dog; conditions: at ≥2 mg/kg/day, dose-dependent increases in incidence; doses of 2, 10, or 50 mg/kg for 39 weeks
Experimental: Female beagle dogs were treated with Example 7 for 39 weeks at doses of 2, 10, or 50 mg/kg. This experiment was performed at MPI (report #1998-014). Ovaries were examined by a trained pathologist.

[9] = system: mdx mice; test: mdx mouse model of dystrophy: body weight; assay type: in vivo; conditions: prednisolone 5 mg/kg/day per oral in feed; 33.8 weeks age; P<0.05
Experimental: as §1

[10] = system: mdx mice; test: mdx mouse model: in vitro force contractions of EDL muscle; assay type: in vivo; conditions: prednisolone 5 mg/kg/day; P<0.05
Experimental: as §1
The distal tendon of the extensor digitorum longus (EDL) muscle was tied securely to the lever arm of a servomotor/force transducer (model 305B, Aurora Scientific, Richmond Hill, ON, Canada) and the proximal tendon to a tissue clamp. Muscles were stimulated between two platinum electrodes. […] With the muscle held at Lo using stimulation frequencies of 30, 50, 80, 100, 120 and 150 Hz, the maximum isometric tetanic force (Po) developed during a 300 ms train of stimulation pulses was recorded for the EDL muscle. The muscle length was then measured with calipers and after removal of the muscle from the bath the mass of the muscle was determined. For each muscle, the optimum fiber length (Lf) was calculated by multiplying Lo by a previously determined Lf/Lo ratio of 0.45. Total muscle fiber cross-sectional area was determined by dividing the wet mass by the product of Lf and the density of mammalian skeletal muscle (1.06 mg/mm^3). […]

Row | Compound | Histology of skeletal muscle: inflammation, degeneration, regenerating fibers [1] | Mean clinical severity score, Day 7 [3] | Mean clinical severity score, Day 9 [3] | Mean clinical severity score, Day 11 [3] | Mean clinical severity score, Day 14 [3] | Reduction as compared with vehicle-treated mice, Day 7 [3] [%] | Reduction as compared with vehicle-treated mice, Day 9 [3] [%] | Reduction as compared with vehicle-treated mice, Day 11 [3] [%] | Reduction as compared with vehicle-treated mice, Day 14 [3] [%] | further results
1 | C[C@]12CCC(=O)C=C1CCC1C2=CC[C@@]2(C)C1CC[C@]2(O)C(=O)CO (stereo partly drawn) [Example 1, (10S,13S,17R)-17-hydroxy-17-(2-hydroxyacetyl)-10,13-dimethyl-6,7,8,10,12,13,14,15,16,17-decahydro-1H-cyclopenta[a]phenanthren-3(2H)-one] | significant decrease in inflammation, degeneration, and increase in regenerating muscle fibers |  |  |  |  |  |  |  |  | 
2 | C[C@]12C=CC(=O)C=C1CCC1C2=CC[C@@]2(C)C1CC[C@]2(O)C(=O)CO (stereo partly drawn) [Example 2, (10S,13S,17R)-17-hydroxy-17-(2-hydroxyacetyl)-10,13-dimethyl-6,7,8,10,12,13,14,15,16,17-decahydro-3H-cyclopenta[a]phenanthren-3-one] | significant decrease in inflammation, degeneration, and increase in regenerating muscle fibers |  |  |  |  |  |  |  |  | 
3 | C[C@@H]1CC2C3CCC4=CC(=O)C=C[C@]4(C)C3=CC[C@]2(C)[C@@]1(O)C(=O)CO (stereo partly drawn) [Example 7, (10S,13S,16R,17R)-17-hydroxy-17-(2-hydroxyacetyl)-10,13,16-trimethyl-6,7,8,10,12,13,14,15,16,17-decahydro-3H-cyclopenta[a]phenanthren-3-one] |  | 4.5 ± 0.95 | 5.0 ± 0.77 | 5.6 ± 0.82 | 3.1 ± 0.69 | 43.8 | 35.5 | 41.3 | 50 | Paw edema induced by carrageenan (change in paw thickness) [2]: effective at reducing mouse paw edema; Collagen antibody induced arthritis, overall effect ([3]; 20 mg/kg oral): effective at reducing collagen antibody induced arthritis; Acute allergic lung inflammation: leukocyte infiltration (eosinophils and CD4+ T cells) and mucus production [4]: effective at improving parameters of acute allergic lung inflammation; Platelet count [5]: decreases; also recorded: reduces platelet count; Sensitivity to cold pain [5]: strikingly decreases sensitivity to cold pain; also recorded: reduces sensitivity to cold pain; Sensitivity to heat pain [5]: significantly decreases sensitivity to heat pain; also recorded: reduces sensitivity to heat pain; Spleen size [5]: decreased spleen size; also recorded: reduces spleen size; White blood cell count [5]: decreases white blood cell count; also recorded: reduces white blood cell count; Ejection fraction [6]: improved ejection fraction; Fraction shortening [6]: improved fraction shortening; Increase in survival relative to mice treated with dexamethasone or control mice ([7]; 30 mg/kg daily from post-natal days 10-46): 19%; Brain edema ([7]; 30 mg/kg oral daily for 14 weeks starting on postnatal day 11): significant decrease in brain edema; Corpora lutea in the ovaries [8]: absent bilaterally
4 | C[C@]12C=CC(=O)C=C1CC[C@@H]1[C@@H]2[C@@H](O)C[C@@]2(C)[C@H]1CC[C@]2(O)C(=O)CO [Prednisolone] | appeared to increase degeneration and decrease in regeneration |  |  |  |  |  |  |  |  | Body weight versus untreated mice [9]: significantly lower body weight; Specific force of EDL muscle, difference to untreated group [10]: no statistically significant (P<0.05) difference
5 | C[C@]12C=CC(=O)C=C1CC[C@@H]1[C@@H]2C(=O)C[C@@]2(C)[C@H]1CC[C@]2(O)C(=O)CO [Prednisone, reference compound] |  | 2.4 ± 0.68 | 1.5 ± 0.27 | 2.9 ± 0.39 | 0.7 ± 0.3 | 69.8 | 69.8 | 69.1 | 88.7 | 
